2 substances from patent US5601992A, “Peptide library formats and methods relating thereto” (Bunsen Rush Laboratories, Inc., priority 1994, dated 1997) can be followed below.

Where no end group is shown, it is not given here.

One experiment has as its system melanophore cells. The experiment can be described thus: Pigment dispersion assay with a-MSH- and control-peptide-coated beads on a dish plated with melanophore cells. It counts as cell-based. The following applies: TFA-treated beads on agarose gel with 20 nM melantonin; ten and 30 minutes after placement. The procedure: a-MSH and its congener peptide (cp) were screened using a culture dish plated with melanophore cells. Melanophores were maintained in cell culture as previously described (A. Daniolos, et al., Pigment Cell Res. 3, 38 (1990); M. N. Potenza, M. R. Lerner, Pigment Cell Res. 4, 186 (1991)). Four million cells were seeded into a 100 mm tissue culture plate (actual internal diameter was 85 mm) in 20 mL of frog fibroblast conditioned media and incubated at 27° C. for 72 h. For an experiment, the media was removed from the dish and replaced with 9 mL of 0.9% Sea Plaque Agarose (FMC Corporation) prepared in fibroblast conditioned media containing 20 nM melantonin. The plate was then placed in the dark for thirty min, after which beads coated with a-MSH or the cp, were sprinkled on the agarose bed and the pigment dispersion response was monitored by photography.

A further experiment deals with T1, murine bombesin receptor (Mus musculus, UniProt P21729).
T1 construct: expressed in transfected cells; host or cells: melanophores (frog; cultured as in Potenza & Lerner), transfected by electroporation with pJG3.6BR
As to the kind of experiment: Screening of bead-released peptides (MPL) on agarose-overlaid melanophores expressing the bombesin receptor; pigment dispersion. The class given is cell-based. The following applies: TFA-gas-cleaved beads on agarose with 2 nM melantonin. How it is done:
Melanophore cells (either transfected or non-transfected and as described in the above-identified patent application) were seeded (4×10^6)into 100 mm tissue culture plate (Falcon, N.J.). For transfected cells, the 100 mm tissue culture dishes were pre-coated with Cell-Tak (Collaborative Research, Inc., Massachusetts) at a concentration of […]. Media and conditions unless otherwise stated, were as described in the above-identified patent application. For wild type cells, no media changes are necessary and the cells can be used as soon as 24 hours after plating. For transfected cells, after the cells have attached to the surface (2-3 h), the media was removed and replaced with 20 ml of frog fibroblast conditioned media which is based on 70% L-15 media (Sigma) with 20% fetal bovine serum supplemented with L-Glutamine and Penicillin Streptomycin (Gibco). The cells were incubated at 27° C. for 12-72 h. Then 12-24 before the experiment, the media was removed and the cells were washed gently with 1×10 ml 70% EX-CELL 320 (JRH Biosciences, Kansas; 70% part A 29% water and 1% part B, hereinafter EX-CELL). […]
The bombesin MPL was screened for agonists using melanophore cells expressing the bombesin receptor. […] Pigment dispersion induced by peptide analogues were monitored by video image subtraction (McClintock, T., et al., Anal. Biochem. 209:298-305 (1993)). […]

T1 sequence (P21729 whole entry): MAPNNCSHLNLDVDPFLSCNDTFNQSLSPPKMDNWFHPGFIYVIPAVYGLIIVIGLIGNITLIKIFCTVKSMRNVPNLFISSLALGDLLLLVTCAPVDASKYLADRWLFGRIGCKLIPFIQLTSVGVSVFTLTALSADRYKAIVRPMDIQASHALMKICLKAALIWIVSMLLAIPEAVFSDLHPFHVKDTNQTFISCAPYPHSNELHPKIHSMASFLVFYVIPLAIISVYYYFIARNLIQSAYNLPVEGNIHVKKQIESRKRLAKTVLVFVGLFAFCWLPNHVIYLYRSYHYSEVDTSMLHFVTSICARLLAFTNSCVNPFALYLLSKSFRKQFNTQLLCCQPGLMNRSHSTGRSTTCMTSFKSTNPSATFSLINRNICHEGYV

As to “Ser-Lys-Glu-Arg-His-Ser-Trp-Tyr-NH2 (SKERHSWY-NH2) [cp, negative control peptide]”, in the experiment on melanophore cells, the pigment dispersion response entry is given as “lack of a pigment dispersion response”.

Consider litorin, for which the “pigment dispersion response of recombinant melanophores to peptide released from bead (agonist activity)” value on murine bombesin receptor is “biological activity of the free peptide released from (but still coated on) the bead was confirmed”.
